Where two headings read alike, the source gives them in different places.
Assays:
Details in all cases: in vivo
[1] = test system: tomato plants (Lycopersicon esculentum var. Celebrity Hybrid, NK)
Method: (§1) In general, tomato plants were contacted with three different treatment formulations: (1) the clorothalonil fungicide BRAVO WEATHER STIK with water and surfactant, (2) a fungicide phytotoxicity reducing formulation according to the subject invention, i.e., BRAVO WEATHER STIK/water/sucrose/surfactant, and (3) sucrose/water. An untreated control was also evaluated.
1) Seven week old potted tomato plants (Lycopersicon esculentum var. Celebrity Hybrid, NK) 2) Clorothalonil 47% a.i. (BRAVO WEATHER STIK) made up in a concentration equivalent to 2 pints per 100 gallons water+Organosilicone Surfactant (SILWET L-77) at 3 oz per 100 gallons 3) BRAVO WEATHER STIK at 2 pints per 100 gallons spray mix+SILWET L-77 at 3 oz per 100 gallons+Sucrose at 25 lbs per 100 gallons 4) Sucrose at 25 lbs per 100 gallons+SILWET L-77 at 3 oz per 100 gallons

[2] = test system: tomato plants (Lycopersicon esculentum var. Celebrity Hybrid, NK); assay: IA mitigation of insecticide phytotoxicity: KRYOCIDE with or without sucrose sprayed on potted tomato plants, vigor and appearance rating
Method: In general, tomato plants were contacted with three different treatment formulations: (1) the sodium aluminofluoride insecticide KRYOCIDE with water and surfactant, (2) an insecticide phytotoxicity reducing formulation according to the subject invention, i.e., KRYOCIDE/water/sucrose/surfactant, and (3) sucrose/water. An untreated control was also evaluated.
1) Nine week old potted tomato plants (Lycopersicon esculentum var. Celebrity Hybrid, NK) 2) Sodium Aluminofluoride 96% a.i. (KRYOCIDE) made up in a concentration equivalent to 15 lbs per 100 gallons water+Organosilicone Surfactant (Silwet L-77) at 3 oz per 100 gallons 3) KRYOCIDE at 15 lbs per 100 gallons spray mix+SILWET L-77 at 3 oz per 100 gallons spray mix+Sucrose at 25 lbs per 100 gallons spray mix 4) Sucrose at 25 lbs per 100 gallons spray mix+SILWET L-77 at 3 oz per 100 gallons

[3] = test system: tomato plants (Lycopersicon esculentum var. Celebrity Hybrid, NK); assay: ID mitigation of fungicide phytotoxicity: ORBIT with or without sucrose sprayed on potted tomato plants, vigor, leaf distortion and appearance rating
Method: as §1, with “propiconazole” for “clorothalonil”, “ORBIT” for “BRAVO WEATHER STIK”, “ORBIT/water/sucrose/surfactant,” for “BRAVO WEATHER STIK/water/sucrose/surfactant,”
1) Nine week old potted tomato plants (Lycopersicon esculentum var. Celebrity Hybrid, NK) 2) Propiconazole 41.8% a.i. (ORBIT) made up in a concentration equivalent to 12 oz per 100 gallons water+Organosilicone Surfactant (SILWET L-77) at 3 oz per 100 gal 3) ORBIT at 12 oz per 100 gallons spray mix+SILWET L-77 at 3 oz per 100 gallons+Sucrose at 25 lbs per 100 gallons 4) Sucrose at 25 lbs per 100 gallons+SILWET L-77 at 3 oz per 100 gallons

[4] = test system: Mung Bean plants (Phaseolus aureus); assay: IB mitigation of bactericide-fungicide phytotoxicity: KOCIDE with or without sucrose sprayed on potted mung bean plants, leaf russeting, vigor and appearance rating
Method: In general, mung bean plants were contacted with three different treatment formulations: (1) the copper hydroxide bactericide-fungicide KOCIDE with water and surfactant, (2) a bactericide-fungicide phytotoxicity reducing formulation according to the subject invention, i.e., KOCIDE/water/sucrose/surfactant, and (3) sucrose/water. An untreated control was also evaluated.
1) Three week old potted Mung Bean plants (Phaseolus aureus) 2) Copper Hydroxide 20% a.i. (KOCIDE) made up in a concentration equivalent to 10 lbs per 100 gallons spray mix+Organosilicone Surfactant (SILWET L-77) at 3 oz per 100 gallons 3) KOCIDE at 10 lbs per 100 gallons spray mix+Sucrose at 25 lbs per 100 gallons+SILWET L-77 at 3 oz per 100 gallons 4) Sucrose at 25 lbs per 100 gallons+SILWET L-77 at 3 oz per 100 gallons

In the case of Clorothalonil [BRAVO WS], the “overall vigor and appearance, Mean/Statistical Rank” value [1] is reported as 5.25 a, the “overall vigor and appearance, Replication 1” value [1] is reported as 5 and the “overall vigor and appearance, Replication 2” value [1] is reported as 5. For the same compound, the “overall vigor and appearance, Replication 3” value [1] was 6 and the “overall vigor and appearance, Replication 4” value [1] was 5.

For `OC[C@H]1O[C@@](CO)(O[C@H]2O[C@H](CO)[C@@H](O)[C@H](O)[C@H]2O)[C@@H](O)[C@@H]1O` [Sucrose], the “overall vigor and appearance, Mean/Statistical Rank” value [2] was 9.75 b, the “overall vigor and appearance, Replication 1” value [2] was 10 and the “overall vigor and appearance, Replication 2” value [2] was 9. The “overall vigor and appearance, Replication 3” value [2] was 10, the “overall vigor and appearance, Replication 4” value [2] was 10 and the “overall vigor, leaf distortion and appearance, Mean/Statistical Rank” value [3] was 10.00 c. The “overall vigor, leaf distortion and appearance, Replication 1” value [3] was 10, the “overall vigor, leaf distortion and appearance, Replication 2” value [3] was 10 and the “overall vigor, leaf distortion and appearance, Replication 3” value [3] was 10. The “overall vigor, leaf distortion and appearance, Replication 4” value [3] was 10, the “russeting of leaves and overall vigor and appearance, Mean/Statistical Rank” value [4] was 10.00 b and the “russeting of leaves and overall vigor and appearance, Replication 1” value [4] was 10. The “russeting of leaves and overall vigor and appearance, Replication 2” value [4] was 10, the “russeting of leaves and overall vigor and appearance, Replication 3” value [4] was 10 and the “russeting of leaves and overall vigor and appearance, Replication 4” value [4] was 10. The “overall vigor and appearance, Mean/Statistical Rank” value [1] was 10.00 b, the “overall vigor and appearance, Replication 1” value [1] was 10 and the “overall vigor and appearance, Replication 2” value [1] was 10. For the same compound, the “overall vigor and appearance, Replication 3” value [1] was 10 and the “overall vigor and appearance, Replication 4” value [1] was 10.

Source: patent US20140323296A1, “Pesticide Compositions and Methods for Their Use” (priority 2004, published 2014)
